In patent publication US20100113366A1, “USE OF PROLINE-RICH PEPTIDE DERIVED FROM HYPOTHALAMUS FOR THE MANUFACTURE OF A MEDICAMENT FOR THE TREATMENT AND/OR PROPHYLAXIS OF CATTLE LEUCOSIS” (priority 2005, published 2010):
Where no end group is shown, it is not given here.

Tested on: cows with leucosis
Assay: hematological and cytomorphological blood indices of cows with leucosis after PRP-1 administration in vivo
Details: 48 h after 1st and 2nd administration; microscopic analysis
Procedure: The cows with leucosis were administered with the PRP-1 solution in concentration 1.57×10^−4 g in 1 ml in a dose of 4×10^−3 ml/kg live weight of animal twice in 48 h.
The blood samples were taken from the jugular vain of animal into the test tubes with anti-coagulant Trilon-B before administration, in 48 h after 1st and 2nd administrations, as well as in 33 days after the 2nd administration. The blood hematomorphological and cytomorphological studies were carried out according to the available methods of veterinary hematology.

AGAPEPAEPAQPGVY [PRP-1, Ala-Gly-Ala-Pro-Glu-Pro-Ala-Glu-Pro-Ala-Gln-Pro-Gly-Val-Tyr]
morphological changes of small lymphocytes with high resistance, neutrophils, eosinophils and monocytes in blood smears: no any morphological changes
